Reference: ChEMBL document CHEMBL1201862, “PubChem BioAssay data set” (2004)
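1) Cells in 96-well plates. 2) Compound, 48 h, 5 concentrations. 3) Linear interpolation between surrounding doses. 4) Unreached endpoint = highest concentration. GI50 = concentration required for 50% inhibition of growth.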 Active and inactive are the calls of the source. Cut-off read from the data, not from the text of the source: active = GI50 up to about 1.1 µM and inactive = higher.

Columns and labels:
Assay in all cases: NCI-60 cell line screen, 48 h
IGROV-1 = test system: IGROV-1
OVCAR-4 = test system: OVCAR-4
HOP-92 = test system: HOP-92
UO-31 = test system: UO-31
HOP-62 = test system: HOP-62
CAKI-1 = test system: CAKI-1
UACC-257 = test system: UACC-257
MOLT-4 = test system: MOLT-4
Hs-578T = test system: Hs-578T
COLO 205 = test system: COLO 205
Malme-3M = test system: Malme-3M
NCI-H460 = test system: NCI-H460
UACC-62 = test system: UACC-62
KM12 = test system: KM12
RPMI-8226 = test system: RPMI-8226
DU-145 = test system: DU-145
PC-3 = test system: PC-3
MDA-MB-231 = test system: MDA-MB-231
RXF 393 = test system: RXF 393
OVCAR-5 = test system: OVCAR-5
HCT-15 = test system: HCT-15
OVCAR-3 = test system: OVCAR-3
786-0 = test system: 786-0
K562 = test system: K562
BT-549 = test system: BT-549
NCI-H23 = test system: NCI-H23
EKVX = test system: EKVX
SNB-75 = test system: SNB-75
U-251 = test system: U-251
T47D = test system: T47D
SN12C = test system: SN12C
SF-295 = test system: SF-295
SF-268 = test system: SF-268
TK-10 = test system: TK-10
SR = test system: SR
HCC 2998 = test system: HCC 2998
A498 = test system: A498
ACHN = test system: ACHN
A549 = test system: A549
SK-MEL-28 = test system: SK-MEL-28
NCI-H522 = test system: NCI-H522
NCI/ADR-RES = test system: NCI/ADR-RES
OVCAR-8 = test system: OVCAR-8
MDA-N = test system: MDA-N
MCF7 = test system: MCF7
SF-539 = test system: SF-539
LOX IMVI = test system: LOX IMVI
HT-29 = test system: HT-29
SK-OV-3 = test system: SK-OV-3
CCRF-CEM = test system: CCRF-CEM
NCI-H226 = test system: NCI-H226
SK-MEL-5 = test system: SK-MEL-5
HCT-116 = test system: HCT-116
MDA-MB-435 = test system: MDA-MB-435
SW-620 = test system: SW-620
HL-60 = test system: HL-60
M14 = test system: M14
SK-MEL-2 = test system: SK-MEL-2
SNB-19 = test system: SNB-19

For `Cc1ccc(C2=Nn3c(nc4sc5c(c4c3=O)CCCC5)SC2)cc1`, the GI50 (IGROV-1) was > 100 µM (inactive), the GI50 (OVCAR-4) was > 100 µM (inactive) and the GI50 (HOP-92) was > 100 µM (inactive). The GI50 (UO-31) was > 100 µM (inactive), the GI50 (HOP-62) was > 100 µM (inactive) and the GI50 (CAKI-1) was > 100 µM (inactive). For the same molecule, the GI50 (UACC-257) was > 100 µM (inactive), the GI50 (MOLT-4) was > 100 µM (inactive) and the GI50 (Hs-578T) was 35.7 µM (inactive). For the same molecule, the GI50 (COLO 205) was > 100 µM (inactive), the GI50 (Malme-3M) was > 100 µM (inactive) and the GI50 (NCI-H460) was > 100 µM (inactive). The GI50 (UACC-62) was > 100 µM (inactive), the GI50 (KM12) was > 100 µM (inactive) and the GI50 (RPMI-8226) was > 100 µM (inactive). For the same molecule, the GI50 (DU-145) was > 100 µM (inactive), the GI50 (PC-3) was > 100 µM (inactive) and the GI50 (MDA-MB-231) was > 100 µM (inactive). For the same molecule, the GI50 (RXF 393) was > 100 µM (inactive), the GI50 (OVCAR-5) was > 100 µM (inactive) and the GI50 (HCT-15) was over 100 µM. The GI50 (OVCAR-3) was > 100 µM (inactive), the GI50 (786-0) was > 100 µM (inactive) and the GI50 (K562) was > 100 µM (inactive). The GI50 (BT-549) was > 100 µM (inactive), the GI50 (NCI-H23) was > 100 µM (inactive) and the GI50 (EKVX) was > 100 µM (inactive). For the same molecule, the GI50 (SNB-75) was 96.4 µM (inactive), the GI50 (U-251) was > 100 µM (inactive) and the GI50 (T47D) was > 100 µM (inactive). The GI50 (SN12C) was > 100 µM (inactive), the GI50 (SF-295) was > 100 µM (inactive) and the GI50 (SF-268) was > 100 µM (inactive). For the same molecule, the GI50 (TK-10) was > 100 µM (inactive), the GI50 (SR) was > 100 µM (inactive) and the GI50 (HCC 2998) was > 100 µM (inactive). For the same molecule, the GI50 (A498) was > 100 µM (inactive), the GI50 (ACHN) was > 100 µM (inactive) and the GI50 (A549) was > 100 µM (inactive). The GI50 (SK-MEL-28) was > 100 µM (inactive), the GI50 (NCI-H522) was > 100 µM (inactive) and the GI50 (NCI/ADR-RES) was > 100 µM (inactive). The GI50 (OVCAR-8) was > 100 µM (inactive), the GI50 (MDA-N) was > 100 µM (inactive) and the GI50 (MCF7) was > 100 µM (inactive). The GI50 (SF-539) was > 100 µM (inactive), the GI50 (LOX IMVI) was > 100 µM (inactive) and the GI50 (HT-29) was > 100 µM (inactive). For the same molecule, the GI50 (SK-OV-3) was > 100 µM (inactive), the GI50 (CCRF-CEM) was > 100 µM (inactive) and the GI50 (NCI-H226) was > 100 µM (inactive). For the same molecule, the GI50 (SK-MEL-5) was > 100 µM (inactive), the GI50 (HCT-116) was > 100 µM (inactive) and the GI50 (MDA-MB-435) was > 100 µM (inactive). The GI50 (SW-620) was > 100 µM (inactive) and the GI50 (HL-60) was > 100 µM (inactive).
`O=C(O)c1ccc([N+](=O)[O-])c2cc3cnccc3nc12` was tested, and the GI50 (IGROV-1) was 34.7 µM (inactive), the GI50 (HOP-92) was 30.1 µM (inactive) and the GI50 (UO-31) was 23.3 µM (inactive). The GI50 (HOP-62) was 31.6 µM (inactive), the GI50 (CAKI-1) was > 10 µM (inactive) and the GI50 (MOLT-4) was 3.91 µM (inactive). For the same molecule, the GI50 (Hs-578T) was 35 µM (inactive), the GI50 (M14) was 17.8 µM (inactive) and the GI50 (COLO 205) was 21.5 µM (inactive). For the same molecule, the GI50 (Malme-3M) was 15.2 µM (inactive), the GI50 (NCI-H460) was 38.2 µM (inactive) and the GI50 (UACC-62) was 12.4 µM (inactive). For the same molecule, the GI50 (KM12) was 22.4 µM (inactive), the GI50 (RPMI-8226) was 39.7 µM (inactive) and the GI50 (DU-145) was 33 µM (inactive). For the same molecule, the GI50 (PC-3) was 15.5 µM (inactive), the GI50 (MDA-MB-231) was 19.4 µM (inactive) and the GI50 (RXF 393) was 27.1 µM (inactive). For the same molecule, the GI50 (OVCAR-5) was 33.7 µM (inactive), the GI50 (HCT-15) was 20.1 µM and the GI50 (OVCAR-3) was 21.2 µM (inactive). The GI50 (K562) was 5.78 µM (inactive), the GI50 (BT-549) was 19.1 µM (inactive) and the GI50 (NCI-H23) was 24.6 µM (inactive). For the same molecule, the GI50 (SNB-75) was 19.3 µM (inactive), the GI50 (U-251) was 19.9 µM (inactive) and the GI50 (T47D) was 18.6 µM (inactive). The GI50 (SK-MEL-2) was 17.9 µM (inactive), the GI50 (SN12C) was 16.3 µM (inactive) and the GI50 (SF-295) was 43.5 µM (inactive). The GI50 (SR) was 43.2 µM (inactive), the GI50 (HCC 2998) was 22.3 µM (inactive) and the GI50 (A498) was 70 µM (inactive). The GI50 (SK-MEL-28) was 18.6 µM (inactive), the GI50 (NCI-H522) was 13.4 µM (inactive) and the GI50 (NCI/ADR-RES) was 25.9 µM (inactive). The GI50 (OVCAR-8) was 22.4 µM (inactive), the GI50 (MDA-N) was 20.6 µM (inactive) and the GI50 (MCF7) was 19.3 µM (inactive). For the same molecule, the GI50 (HT-29) was 22.6 µM (inactive), the GI50 (SNB-19) was > 10 µM (inactive) and the GI50 (SK-OV-3) was 56.9 µM (inactive). The GI50 (CCRF-CEM) was 2.31 µM (inactive), the GI50 (NCI-H226) was 30.3 µM (inactive) and the GI50 (SK-MEL-5) was 19.1 µM (inactive). The GI50 (HCT-116) was 18.4 µM (inactive), the GI50 (MDA-MB-435) was 26.9 µM (inactive) and the GI50 (HL-60) was > 100 µM (inactive).
`COC(=O)CC(=O)Nc1sccc1S(=O)(=O)c1ccccc1` was tested, and the GI50 (IGROV-1) was > 100 µM (inactive), the GI50 (OVCAR-4) was 54.3 µM (inactive) and the GI50 (HOP-92) was > 100 µM (inactive). For the same molecule, the GI50 (UO-31) was 40.5 µM (inactive), the GI50 (CAKI-1) was > 100 µM (inactive) and the GI50 (UACC-257) was 67.1 µM (inactive). The GI50 (MOLT-4) was > 100 µM (inactive), the GI50 (Hs-578T) was > 100 µM (inactive) and the GI50 (M14) was 27 µM (inactive). For the same molecule, the GI50 (COLO 205) was > 100 µM (inactive), the GI50 (Malme-3M) was > 100 µM (inactive) and the GI50 (NCI-H460) was > 100 µM (inactive). For the same molecule, the GI50 (UACC-62) was 49.1 µM (inactive), the GI50 (KM12) was 94.8 µM (inactive) and the GI50 (RPMI-8226) was > 100 µM (inactive). The GI50 (DU-145) was 71.3 µM (inactive), the GI50 (PC-3) was 34.4 µM (inactive) and the GI50 (MDA-MB-231) was > 100 µM (inactive). For the same molecule, the GI50 (RXF 393) was 44.4 µM (inactive), the GI50 (OVCAR-5) was > 100 µM (inactive) and the GI50 (HCT-15) was 27.2 µM. The GI50 (OVCAR-3) was 16.4 µM (inactive), the GI50 (786-0) was 50.5 µM (inactive) and the GI50 (K562) was 80.7 µM (inactive). The GI50 (BT-549) was 27.5 µM (inactive), the GI50 (NCI-H23) was > 100 µM (inactive) and the GI50 (EKVX) was > 100 µM (inactive). The GI50 (SNB-75) was > 100 µM (inactive), the GI50 (U-251) was > 100 µM (inactive) and the GI50 (T47D) was > 100 µM (inactive). The GI50 (SK-MEL-2) was 66.2 µM (inactive), the GI50 (SN12C) was > 100 µM (inactive) and the GI50 (SF-295) was > 100 µM (inactive). The GI50 (SF-268) was > 100 µM (inactive), the GI50 (TK-10) was 65.9 µM (inactive) and the GI50 (SR) was > 100 µM (inactive). The GI50 (HCC 2998) was 15.8 µM (inactive), the GI50 (A498) was > 100 µM (inactive) and the GI50 (ACHN) was > 100 µM (inactive). The GI50 (A549) was > 100 µM (inactive), the GI50 (SK-MEL-28) was > 100 µM (inactive) and the GI50 (NCI-H522) was 46.9 µM (inactive). The GI50 (NCI/ADR-RES) was > 100 µM (inactive), the GI50 (OVCAR-8) was > 100 µM (inactive) and the GI50 (MDA-N) was 35.2 µM (inactive). The GI50 (MCF7) was 65.8 µM (inactive), the GI50 (SF-539) was 35.1 µM (inactive) and the GI50 (HT-29) was > 100 µM (inactive). The GI50 (SNB-19) was > 100 µM (inactive), the GI50 (SK-OV-3) was > 100 µM (inactive) and the GI50 (CCRF-CEM) was > 100 µM (inactive). The GI50 (NCI-H226) was 40.3 µM (inactive), the GI50 (SK-MEL-5) was > 100 µM (inactive) and the GI50 (HCT-116) was > 100 µM (inactive). The GI50 (MDA-MB-435) was > 100 µM (inactive), the GI50 (SW-620) was > 100 µM (inactive) and the GI50 (HL-60) was > 100 µM (inactive).
